Source: patent publication US9210928B2, “Plant development control composition” (Syngenta Crop Protection, LLC, priority 2008, dated 2015)
Entries after “also recorded” stand apart in the source; their conditions may differ.

Biological target: T1, AtCCD7 (Arabidopsis thaliana, UniProt Q7XJM2)
T1 construct: expressed in transfected cells; host or cells: E. coli BL21(DE3) harbouring pAC-BETA
T1 sequence (Q7XJM2 32-618): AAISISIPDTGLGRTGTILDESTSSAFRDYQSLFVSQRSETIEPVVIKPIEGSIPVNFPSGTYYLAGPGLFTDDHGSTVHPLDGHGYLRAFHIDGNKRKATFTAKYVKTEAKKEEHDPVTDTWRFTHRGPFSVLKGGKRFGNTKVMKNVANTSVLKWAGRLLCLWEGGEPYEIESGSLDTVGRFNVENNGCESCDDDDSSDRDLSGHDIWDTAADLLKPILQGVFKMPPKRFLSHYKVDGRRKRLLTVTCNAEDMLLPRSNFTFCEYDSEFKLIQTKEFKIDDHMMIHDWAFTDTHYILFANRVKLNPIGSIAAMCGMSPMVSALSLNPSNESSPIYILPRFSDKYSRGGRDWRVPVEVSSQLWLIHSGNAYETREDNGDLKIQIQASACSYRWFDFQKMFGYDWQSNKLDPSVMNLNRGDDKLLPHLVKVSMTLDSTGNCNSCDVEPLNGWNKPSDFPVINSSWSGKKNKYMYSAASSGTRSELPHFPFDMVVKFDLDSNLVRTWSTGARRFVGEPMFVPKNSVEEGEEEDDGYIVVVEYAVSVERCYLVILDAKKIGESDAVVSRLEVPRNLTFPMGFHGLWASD
Experiment: In vivo enzyme assay in β-carotene-producing E. coli expressing AtCCD7
Type: cell-based
Conditions: 100 μM inhibitor, 16 hours; FIG. 4
Source text: In vivo enzyme assays in E. coli—The genes of interest (supplemental Table S1) were cloned into the vector pET30c (Novagen) fused directly to the initial ATG codon with no tag, or into pGEX-4T such that the gene was fused to an N-terminal GST tag. All genes were full length except AtCCD7, which had the chloroplast signal sequence removed (supplemental methods). […] Therefore, this construct was used in subsequent assays. The plasmids were transferred to the E. coli expression strain BL21(DE3), harbouring pAC-BETA (38), and therefore producing β-carotene.
For each inhibitor assay, 2.5 ml LB media with the appropriate antibiotics (25 μg ml^−1 chloramphenicol and 50 μg ml^−1 kanamycin or 100 μg ml^−1 ampicillin) and 2.5 μM IPTG, was prepared. Inhibitors (0.1 M in 100% ethanol) were added to the media to a final concentration of 100 μM. The media was then inoculated with 0.25 ml of overnight culture (grown at 37° C. with the appropriate antibiotics) and incubated with shaking (200 rpm) at 28° C. for 16 hours. One ml of culture was harvested by microcentrifugation and resuspended thoroughly in 1 ml ethanol containing 0.2% Triton X-100. […] The supernatant was removed and the O.D.453-O.D.550 was measured. The amount of β-carotene was calculated using a standard curve generated from a dilution series of β-carotene (Sigma) in ethanol with 0.2% Triton X-100; the absolute levels of β-carotene are shown in FIG. 8. The relative inhibition was calculated by the equation: (Ci−Cc)/(C1−Cc)×100, where Ci is the carotenoid level with inhibitor and CCD present, Cc is the level with CCD but without the inhibitor and C1 is the level in a strain where lacZ is expressed instead of the CCD, and no inhibitor is present. […]
In vivo activity of inhibitors applied to E. coli strains expressing CCDs—Coloured E. coli strains that produce various carotenoids can be constructed by expression of enzymes for carotenoid synthesis (26). […] The difference in the carotenoid levels gave a measure of CCD activity, and inhibition of this activity was measured by addition of inhibitors to the growing medium. […]

| SMILES | relative inhibition of AtCCD7 in E. coli (in words) |
| --- | --- |
| COc1ccc(C(=O)N(O)Cc2ccccc2)cc1 [Compound F1, N-benzyl-4-methoxybenzoyl hydroxamic acid] | poor inhibition; also recorded: relatively small activity; also recorded: relatively ineffective against AtCCD7; also recorded: poor inhibitors against AtCCD7 |
| COc1ccc(C(=O)N(O)Cc2ccc(F)cc2)cc1 [Compound F2, N-(4-fluorobenzyl)-4-methoxybenzoyl hydroxamic acid] | poor inhibition; also recorded: relatively small activity; also recorded: relatively ineffective against AtCCD7; also recorded: poor inhibitors against AtCCD7 |
| COc1ccc(C(=O)N(O)Cc2ccccc2)cc1OC [Compound F3, N-benzyl-3,4-dimethoxybenzoyl hydroxamic acid] | inactive |
